In PubChem BioAssay AID1996:
Values after ≈ are worked out from the molar mass of the structure shown.

settings: buffer; pH 7.4; 200.0 µM

| Compound | solubility kinetic [µg/mL] |
| --- | --- |
| O=C(c1ccc(F)cc1)C(C(=O)N1CCCCC1)n1ccccc1=O (stereo unspecified) | > 51.4 |
| Cn1c(NCCO)nc2c1c(=O)n(Cc1ccc(F)cc1)c(=O)n2C | 50.6 (≈ 146 µM) |
| N#CC1=C(N)Oc2cc(O)c(Cl)cc2C1c1cccnc1 (stereo unspecified) | 11.2 (≈ 37.4 µM) |
| N/C(=N\[N+](=O)[O-])N1CCN(C(=O)OC2CCCC2)CC1 | > 42.8 |
| Cc1oc(-c2cccs2)nc1CN1CCC(C(=O)N2CCCC2)CC1 | > 53.9 |
| Cc1ccc(C)c(NC(=O)CCN2CCN(C)CC2)c1 | > 41.3 |
| O=C(c1ccc(-c2cc(Cl)ccc2Cl)o1)N1CCOCC1 | 11.3 (≈ 34.6 µM) |
| Cc1cc(C(=O)NCC(c2ccco2)N(C)C)ccc1[N+](=O)[O-] (stereo unspecified) | 39.7 (≈ 125 µM) |
| CC1(C)Cc2cccc(OCC(=O)Nc3ccccc3C(F)(F)F)c2O1 | 7.5 (≈ 20.5 µM) |
| CCc1ccc(NC2=CC(=O)C(=O)c3ccccc32)cc1 | 2.4 (≈ 8.65 µM) |
| CC(NC(=O)c1cccc(S(=O)(=O)N(C)c2ccccc2)c1)c1cccnc1 (stereo unspecified) | > 59.3 |
| CCN1CCc2c(C#N)c(NCc3ccccc3)nc(NCCO)c2C1 | 6.3 (≈ 17.9 µM) |
| CC(=O)c1ccc(N2CCN(C(=S)NCCCN(C)C)CC2)cc1 | > 52.3 |
| COc1ccc(F)cc1S(=O)(=O)NCCCn1ccnc1 | > 47 |
| CCCCOc1ccc(OCCCN2CCOCC2)cc1.Cl | > 49.5 |
| Cc1nc(Nc2ccccc2)sc1C(=O)c1ccc(F)cc1 | 2.4 (≈ 7.68 µM) |
| CCCCCCn1cc(C(=O)OCC)c(=O)c2cc(F)c(F)cc21 | 43.6 (≈ 129 µM) |
| COc1ccccc1NC(=O)c1ccc2nsnc2c1 | 39.6 (≈ 139 µM) |
| Cc1ccc(C(=O)NC2CCc3ccccc3C2=O)cc1 (stereo unspecified) | 5.8 (≈ 20.8 µM) |
| N#Cc1cc2c(=O)n3ccccc3nc2n(-c2ccc(Cl)cc2)c1=O | 1.4 (≈ 4.01 µM) |
| Cc1ccc(F)c(NC(=O)c2cncn2-c2ccccc2)c1 | 41.2 (≈ 140 µM) |
| Cl.Nc1ccc2nc(CCCO)[nH]c2c1 | > 39.6 |

| Compound | solubility kinetic [µg/mL] |
| --- | --- |
| Cc1cccc(C(=O)OCC(=O)NCCN2C(=O)CSC2=O)c1[N+](=O)[O-] | > 57.2 |
| CN(C(=O)C1CCC(=O)N(C2CC2)C1)C1CCCCC1 (stereo unspecified) | > 41.8 |
| CC1=C/C(=N\OS(=O)(=O)c2ccccc2)C(C(C)C)=CC1=O | > 47.9 |
| CCCCOP(=O)(OCCCC)C(O)c1ccc(N(C)C)cc1 (stereo unspecified) | > 51.5 |
| CC(=O)CC(C)(C)Nc1nc2ccc([N+](=O)[O-])cc2o1 | > 41.6 |
| CC(C)N1C(=O)N(c2cccc(Cl)c2)C(C)(O)CC1(C)C (stereo unspecified) | > 46.6 |
| O=C(NCC(=O)N1CCCCCC1)c1ccc(Cl)cc1 | > 44.2 |
| Fc1ccccc1-c1nc2ncccc2o1 | 31 (≈ 145 µM) |
| O=C(COC(=O)/C=C/c1ccc(F)cc1)NCc1cccs1 | 8.7 (≈ 27.2 µM) |
| CCCNC(=O)c1c(O)c2cccc3c2n(c1=O)CCC3 | 0.5 (≈ 1.75 µM) |
| COc1cc(N2CCCC2)c(OC)cc1C=O | > 35.3 |
| CC(Cc1ccccc1)NC(=O)c1ccc(N)cc1 (stereo unspecified) | > 38.1 |
| COc1ccc(C(=O)NCC(=O)N/N=C(\C)c2ccco2)cc1OC | > 51.8 |
| COc1ccc(OCC(=O)Nc2ccc3oc(=O)ccc3c2)cc1 | 3.3 (≈ 10.1 µM) |
| COc1nc(C)ccc1-c1noc(-c2cccs2)n1 | 2.5 (≈ 9.15 µM) |
| CS(=O)(=O)N1CCN(Cc2ccc([N+](=O)[O-])cc2)CC1 | > 44.9 |
| O=C(C1CCCC1)N1CCCC(Nc2ccccc2)C1 (stereo unspecified) | 35.9 (≈ 132 µM) |
| O=c1ccc2cc3c([nH]c4ccc(Br)cc43)oc-2c1O | > 49.5 |
| Cn1c(SCC(=O)N2CCCC2)nc2ccccc21 | > 41.3 |
| COc1ccc(S(=O)(=O)NCCc2c[nH]c3ccc(C)cc23)cc1 | 17.3 (≈ 50.2 µM) |
| CCOc1ccccc1C1NC(=O)c2ccccc2O1 (stereo unspecified) | 35.2 (≈ 131 µM) |
| O=C1c2cccc3cccc(c23)C(=O)N1Cc1ccccc1 | < 0.6 |

| Compound | solubility kinetic [µg/mL] |
| --- | --- |
| O=C(O)C(=O)O.c1ccc2cc(OCCCn3ccnc3)ccc2c1 | > 51.4 |
| Cn1cc(C(=O)Nc2ccc(C#N)cc2)c2ccccc2c1=O | < 0.2 |
| CC(C)NC(=O)c1ccc(CSCc2ccccc2Cl)o1 | > 48.6 |
| CN1c2ccccc2C(=O)/C(=C\Nc2ncccn2)S1(=O)=O | 2.8 (≈ 8.85 µM) |
| COc1ccc([N+](=O)[O-])cc1NC(=O)COC(=O)C=C(C)C | 1.1 (≈ 3.57 µM) |
| Clc1ccc2nc(-c3ccc4c(c3)OCO4)cn2c1 | < 0.3 |
| Cc1nnc(SCC(=O)N2CCCC2)n(N)c1=O | > 40.4 |
| O=C(Nc1ccc(N2CCCCC2)cc1)c1ccc([N+](=O)[O-])o1 | 6.9 (≈ 21.9 µM) |
| O=C(O)c1cccnc1Sc1ccc(Br)cc1 | > 46.5 |
| O=C(COC(=O)c1ccc2ccccc2n1)c1ccccc1 | 42.3 (≈ 145 µM) |
| CN(CCO)C(=O)c1ccc(-c2nn(C)c(=O)c3ccccc23)cc1 | > 50.6 |
| O=C(CN1CCc2ccccc2C1)Nc1ccc(F)cc1F | 28.5 (≈ 94.3 µM) |
| CC1CCCN(CCC(=O)c2ccc(Br)cc2)C1.Cl (stereo unspecified) | 33.8 |
| CC(C)S(=O)(=O)c1cnc(-c2ccccn2)nc1N | 37.6 (≈ 135 µM) |
| CCS(=O)(=O)CCn1c([N+](=O)[O-])cnc1C | > 37.1 |
| CCCCn1c(NCc2ccncc2)nc2ccccc21 | 39.4 (≈ 141 µM) |
| CC(=O)C1=C(C)NC(SCC(N)=O)=C(C#N)C1c1ccco1 (stereo unspecified) | > 47.6 |
| COc1ccccc1CN1CCCCCC1.O=C(O)C(=O)O | 40.8 |
| N/C(=N\OC(=O)CC1CCCCC1)c1cccc(Br)c1 | 0.6 (≈ 1.77 µM) |
| O=C(CCCN1C(=O)c2ccccc2C1=O)NCc1ccc(F)cc1 | 47.8 (≈ 140 µM) |
| CNC(=O)COC(=O)/C=C/c1nc2ccccc2s1 | > 41.4 |
| Cc1ccc(NC(=O)CSc2ccc3c(c2)OCCO3)nc1 | > 47.5 |

Results, then the compound that gave them:

| solubility kinetic [µg/mL] | Compound |
| --- | --- |
| 19.3 (≈ 88 µM) | CC(CCN1CCOCC1)c1ccccc1 (stereo unspecified) |
| 1 (≈ 3.61 µM) | O=C(NCc1c(O)ccc2ccccc12)c1ccccc1 |
| 0.5 (≈ 1.62 µM) | Cc1cc(C)cc(NC(=O)CN2C(=O)c3ccccc3C2=O)c1 |
| 35.6 (≈ 130 µM) | NC(=O)COC(=O)Cc1coc2cc3c(cc12)CCC3 |
| > 46.9 | Cc1ccccc1C(=O)OC(C)CN1CCN(C)CC1.Cl (stereo unspecified) |
| 7.5 (≈ 21.5 µM) | COc1ccccc1N1CCN(Cc2ccc(O)c3ncccc23)CC1 |
| > 56.6 | O=C(CCNS(=O)(=O)c1ccc(F)c(F)c1)NCCN1CCOCC1 |
| 39.5 (≈ 139 µM) | Cc1nc(N2CCN(c3ccccc3)CC2)[nH]c(=O)c1C |
| > 48.5 | CC(Sc1nncs1)C(=O)Nc1ccc2c(c1)OCCO2 (stereo unspecified) |
| > 29 | Cn1cc(-c2cc(C(=O)O)on2)cn1 |
| 46 (≈ 138 µM) | CCc1noc(C)c1C(=O)OCC(=O)c1ccc(OC)c(OC)c1 |
| 26.2 (≈ 131 µM) | CNS(=O)(=O)c1cc(N)ccc1C |
| 10.3 (≈ 33.1 µM) | CSc1ccc(CN(C)C(=O)c2cc3ccccc3o2)cc1 |
| > 52.1 | CCOC(=O)N1CCN(CC(O)c2c[nH]c3ccc(OC)cc23)CC1 (stereo unspecified) |
| 32 (≈ 127 µM) | C=CCc1c(C)nc(N2CCSCC2)[nH]c1=O |
| > 45 | CC(=O)N(c1cccc(Cl)c1)c1nc(C)cc(C)c1C#N |
| 32.3 (≈ 147 µM) | CCc1ccc(N=C2NC(=O)CS2)cc1 |
| 43.1 (≈ 140 µM) | O=C(CN1C(=O)C(=O)c2ccccc21)NCCc1ccccc1 |
| 40.8 (≈ 138 µM) | O=C(NCc1ccccn1)Nc1cc(Cl)cc(Cl)c1 |
| > 63.1 | O=C(c1ccc(Cl)c(S(=O)(=O)N2CCOCC2)c1)N1CCc2ccccc2C1 |
| 46.2 (≈ 129 µM) | N#CCC(=O)Nc1ccc(C(=O)Nc2cccc(S(N)(=O)=O)c2)cc1 |
| 8.3 (≈ 23.9 µM) | Cc1cc(=O)oc2cc(N3C(=O)CC(Cc4ccccc4)C3=O)ccc12 (stereo unspecified) |
| 2.5 (≈ 7.14 µM) | Cc1cc(NC(=O)c2coc(=O)c(Br)c2)ccc1C(C)C |
| 12.8 (≈ 40.8 µM) | NS(=O)(=O)c1ccc(CNc2ccc3ccccc3n2)cc1 |
| 39.1 (≈ 132 µM) | COc1ccc(CCC(=O)N2CCCc3ccccc32)cc1 |
| 42.1 (≈ 116 µM) | Cc1ccc(C2(c3noc(CN(C)Cc4cccnc4)n3)CCCC2)cc1 |
| > 40.3 | O=C(NCCN1CCOCC1)c1ccc(Cl)cc1 |
| 35.6 (≈ 139 µM) | Fc1cccc(NCCc2c[nH]c3ccccc23)n1 |

| solubility kinetic [µg/mL] | Compound |
| --- | --- |
| 32.5 (≈ 125 µM) | Cc1cccc(CC(=O)NCCN2CCCCC2)c1 |
| > 45.1 | CCN(C(=O)c1ccco1)c1nnc(-c2cccnc2)s1 |
| < 0.6 | CC(NC1c2ccccc2-c2ccccc21)c1ccccc1 (stereo unspecified) |
| 1.9 (≈ 7.14 µM) | Nc1nccc(/C=C/c2c(Cl)cccc2Cl)n1 |
| 2.3 (≈ 9.78 µM) | Cc1ccc2c(c1)/C(=C/c1ccccc1)C(=O)N2 |
| < 0.4 | CC(C)S(=O)(=O)c1csc(NC(=O)Nc2ccc(Cl)cc2)c1Cl |
| 9.3 (≈ 28.8 µM) | COc1ccc(-c2onc3ccc(C(=O)/C=C/N(C)C)cc23)cc1 |
| 43.9 (≈ 129 µM) | COc1cc(C(C)=O)ccc1OCC(=O)N1CCc2ccccc2C1 |
| > 46.5 | CCCCOc1ccc(CSCCN)cc1Cl.Cl |
| 6.3 (≈ 24.7 µM) | N#Cc1ccc(COc2cccnc2[N+](=O)[O-])cc1 |
| 12.2 (≈ 37 µM) | O=C(NC1CCS(=O)(=O)C1)c1sc2ccccc2c1Cl (stereo unspecified) |
| > 41 | Nc1ncnc(NC2CCS(=O)(=O)C2)c1[N+](=O)[O-] (stereo unspecified) |
| 3.1 (≈ 9.93 µM) | O=C(COC(=O)c1c[nH]c2ccccc12)Nc1ccc(F)cc1 |
| 1.6 (≈ 5.88 µM) | CC(C)n1c(N)c(C#N)c2ccc([N+](=O)[O-])cc2c1=O |
| > 47.8 | O=C(O)/C=C/c1ccc(S(=O)(=O)NCc2cccnc2)cc1 |
| 46.2 (≈ 124 µM) | O=C(OCC(=O)N1CCC(Cc2ccccc2)CC1)c1cccnc1Cl |
| 28.2 (≈ 90 µM) | O=C(COC(=O)c1cccc(OC(F)F)c1)NC1CCCC1 |
| > 59.5 | CCCCn1nc(C(=O)N(C)CC(=O)Nc2ccc(F)c(F)c2F)ccc1=O |
| 51.6 (≈ 149 µM) | Cc1ccc(NC(=O)CN(CCc2ccccc2)S(C)(=O)=O)cc1 |
| 54.3 (≈ 145 µM) | CCOC(=O)Cc1csc(NC(=O)CN2C(=O)c3ccccc3C2=O)n1 |
| 24.6 (≈ 84.2 µM) | O=[N+]([O-])c1ccc(O)c(C=Nc2cccc3ccccc23)c1 |
| > 51.8 | COc1ccc(NC(=O)COC(=O)C2C3CC4OC(=O)C2C4C3)cc1 (stereo unspecified) |
| > 40.5 | O=C(NC1CCC(O)CC1)c1cccc2cccnc12 (stereo unspecified) |
| 1.8 (≈ 5.4 µM) | CCOC(=O)C1=C(C)NC(C)=C(C(=O)OCC)C1c1ccc(C)o1 |
| 8.7 (≈ 37.5 µM) | O=C(Nc1cnccn1)Nc1ccccc1F |
| 4 (≈ 11.1 µM) | O=C(/C=C/c1cccc(C(F)(F)F)c1)N1CCN(c2ccccn2)CC1 |
| 2 (≈ 9.68 µM) | N#Cc1c(Cl)cccc1N1CCCC1 |
